Assay results from paper PMC10180520, “Phytochemical Analysis and Profiling of Antioxidants and Anticancer Compounds from Tephrosia purpurea (L.) subsp. apollinea Family Fabaceae” (Molecules, 2023).
Values after ≈ are worked out from the molar mass of the structure shown. Values belong to the compound of their own block, whether it stands above or below them.

What was measured:
leukemia (U937) = experiment: MTT assay, leukemia (U937); format: cell-based
Description: (§1) Breast cancer cell lines (MCF7), osteosarcoma (MG63), breast ductal carcinoma (T47D), leukemia (U937), as well as HeLa, PC3, and healthy pulmonary fibroblast were supplied by the tissue culture laboratory at Vacsera, Egypt. The culturing procedure was maintained sterile, utilizing a laminar airflow cabinet. The cells were cultured in Roswell Park Memorial Institute medium (RPMI 1640). The medium was provided with antibiotics (streptomycin and penicillin) as well as antifungal agents (amphotericin B) and L-glutamine. It was also supplemented with 10% heat-inactivated fetal bovine serum.
(§2) Cell viability was measured using a 3-(4,5-dimethylthiazol-2-yl)-2,5-diphenyl-2H-tetrazolium bromide (MTT) assay. The principle of the MTT assay is that through mitochondrial reduction, purple-colored crystals are produced from the yellowish MTT [80]. […]
(§3) Using a growth medium, serial dilutions of the dimethyl sulfoxide (DMSO)-solubilized extract were produced at concentrations of 31.25, 62.5, 125, 250, 500, and 1000 µg/mL [80]. […] A microplate reader was used to measure the optical density of the formazan solution at 560 nm, with values corrected using a background reference λ of 620 nm. […]
(§4) The IC50 profiles of methanol extract of T. purpurea subsp. apollinea and a positive control for cancer and healthy cell lines were determined with GraphPad Prism version 7 (GraphPad Software Inc., San Diego, CA, USA). […]

[1] = tested on: breast ductal carcinoma (T47D); experiment: MTT assay, breast ductal carcinoma (T47D); format: cell-based
Description: as §1, §2, §3, §4

breast cancer (MCF7) = experiment: MTT assay, breast cancer (MCF7); format: cell-based
Description: as §1, §2, §3, §4

MG63 = experiment: Light microscopy of treated cells, MG63; format: cell-based; settings: MG63, 250 µg/mL (Figure 8)
Source text: (§5) Morphologies of cells treated with the various methanol T. purpurea subsp. apollinea extract concentrations were investigated under light microscopy at 10× objective lens, total magnification = 100×.

osteosarcoma (MG63) = experiment: MTT assay, osteosarcoma (MG63); format: cell-based
Description: as §1, §2, §3, §4

T47D = experiment: Light microscopy of treated cells, T47D; format: cell-based; settings: 250 µg/mL (Figure 8)
Source text: as §5

cervical cancer (HeLa) = experiment: MTT assay, cervical cancer (HeLa); format: cell-based
Description: as §1, §2, §3, §4

PC3 = experiment: Light microscopy of treated cells, PC3; format: cell-based; settings: PC3, 250 µg/mL (Figure 8)
Source text: as §5

MCF7 = experiment: Light microscopy of treated cells, MCF7; format: cell-based; settings: MCF7, 250 µg/mL (Figure 8)
Source text: as §5

HeLa = experiment: Light microscopy of treated cells, HeLa; format: cell-based; settings: 250 µg/mL (Figure 8)
Source text: as §5

[2] = tested on: normal human fetal lung fibroblast (WI38); experiment: MTT assay, normal human fetal lung fibroblast (WI38); format: cell-based; settings: WI-38, WI38 normal cells, 24 h
Description: as §1, §2, §3, §4

prostate cancer (PC3) = experiment: MTT assay, prostate cancer (PC3); format: cell-based
Description: as §1, §2, §3, §4

[3] = ABTS radical scavenging assay; format: biochemical
Description: Distilled water was used to bring up a 50-mL volumetric flask to mark after dissolving 192 mg of 2,2′-azino-bis(3-ethylbenzothiazoline-6-sulfonic acid) (ABTS) in a small volume of water and transferring it to the flask, followed by addition of 1 mL of this solution to 17 μL 0.14 M K2S2O8, and incubation in darkness for 24 h. To prepare the final ABTS dilution for the T. purpurea subsp. apollinea extract, 1 mL of reaction mixture was added to 49 mL of methanol. Then, 0.190 mL of newly made ABTS solution was mixed with 0.010 mL of plant extract in a 96-well plate and kept in the dark for 30 min. Thereafter, a decrease in ABTS OD was read at 734 nm in a FluoStar Omega microplate reader. Trolox was used as an antioxidant standard. All the values were measured in triplicate.

[4] = DPPH radical scavenging assay; format: biochemical
Description: Each methanolic extract concentration (1 mL) was added to 3 mL of 0.1 mM DPPH solubilized in methanol, followed by shaking and placing it into a dark chamber for 30 min. When DPPH reacts with an H-donating antioxidant, it is scavenged, thereby resulting in a decrease in absorbance. The optical density of each concentration was measured at 517 nm in a UV-Vis spectrophotometer. Ascorbic acid was used as an antioxidant standard. All the values were measured in triplicate.

IC50 (leukemia (U937); Homo sapiens, U-937, U937, MTT, 24 h): 41.7 ± 0.9 µg/mL (≈ 76.7 µM) | IC50 ([1]; Homo sapiens, T47D, MTT, 24 h): 7 ± 0.1 µg/mL (≈ 12.9 µM) | IC50 (breast cancer (MCF7); MCF7, MTT, 24 h): 37.4 ± 0.1 µg/mL (≈ 68.8 µM) | IC50 (osteosarcoma (MG63); Homo sapiens, MG-63, MG63, MTT, 24 h): 19 ± 0.3 µg/mL (≈ 35 µM) | IC50 (cervical cancer (HeLa); Homo sapiens, HeLa, MTT, 24 h): 41.9 ± 0.1 µg/mL (≈ 77.1 µM) | IC50 (prostate cancer (PC3); PC3, MTT, 24 h): 46.3 ± 0.2 µg/mL (≈ 85.2 µM)
Structure (SMILES): COc1cccc2c1C(=O)c1c(O)c3c(c(O)c1C2=O)C[C@@](O)(C(=O)CO)C[C@@H]3O[C@H]1C[C@H](N)[C@H](O)[C@H](C)O1 [Doxorubicin]
SI (selectivity index) (leukemia (U937); IC50 for WI38 / IC50 for U937): 0.4 | SI (selectivity index) ([1]; IC50 for WI38 / IC50 for T47D): 2.8 | SI (selectivity index) (breast cancer (MCF7); IC50 for WI38 / IC50 for MCF7): 0.5 | cell morphology (MG63): rounded and shrunk cells | SI (selectivity index) (osteosarcoma (MG63); IC50 for WI38 / IC50 for MG63): 1.0 | cell morphology (T47D): rounded and shrunk cells | SI (selectivity index) (cervical cancer (HeLa); IC50 for WI38 / IC50 for HeLa): 0.4 | cell morphology (PC3): rounded and shrunk cells | cell morphology (MCF7): rounded and shrunk cells | cell morphology (HeLa): rounded and shrunk cells | IC50 [2]: 20.1 ± 0.1 µg/mL (≈ 37 µM) | SI (selectivity index) (prostate cancer (PC3); IC50 for WI38 / IC50 for PC3): 0.4

IC50 of ABTS radical scavenging ([3]; mean ± standard deviation): ^a IC50 = 2.9 ± 0.1 μg/mL
Structure (SMILES): Cc1c(C)c2c(c(C)c1O)CCC(C)(C(=O)O)O2 (centres unmarked) [Trolox]
ABTS Scavenging% ([3]; Conc. 0.6 µg/mL): 9.9 ± 0.3% | ABTS Scavenging% ([3]; Conc. 1.3 µg/mL): 18.6 ± 0.4% | ABTS Scavenging% ([3]; Conc. 3.8 µg/mL): 49.6 ± 2.6% | ABTS Scavenging% ([3]; Conc. 6.2 µg/mL): 83.6 ± 1.9% | ABTS Scavenging% ([3]; Conc. 8.8 µg/mL): 92.6 ± 0.2%

IC50 of DPPH radical scavenging ([4]; mean ± standard deviation): ^a IC50 = 4.8 ± 0.1 μg/mL
Structure (SMILES): O=C1O[C@H]([C@@H](O)CO)C(O)=C1O [Ascorbic Acid, Ascorbic acid]
DPPH Scavenging% ([4]; Conc. 1.95 µg/mL): 41.8 ± 0.5% | DPPH Scavenging% ([4]; Conc. 3.9 µg/mL): 45.9 ± 0.1% | DPPH Scavenging% ([4]; Conc. 7.8125 µg/mL): 56.2 ± 0.2% | DPPH Scavenging% ([4]; Conc. 15.625 µg/mL): 64.2 ± 0.3% | DPPH Scavenging% ([4]; Conc. 31.25 µg/mL): 71.2 ± 0.2% | DPPH Scavenging% ([4]; Conc. 62.5 µg/mL): 77.9 ± 0.3% | DPPH Scavenging% ([4]; Conc. 125 µg/mL): 86.4 ± 0.3% | DPPH Scavenging% ([4]; Conc. 250 µg/mL): 92.7 ± 0.2% | DPPH Scavenging% ([4]; Conc. 500 µg/mL): 94.5 ± 0.2% | DPPH Scavenging% ([4]; Conc. 1000 µg/mL): 97.1 ± 0.1%
